Measurements published in US7250258B2 (priority 2003, dated 2007).

What was measured:
[1] = test system: Caucasian patients diagnosed with Alzheimer's Disease; experiment: Clinical association of CDK5 haplotype copy number with galantamine response (ΔADAS-cog responder vs non-responder, logistic regression); type: in vivo, human
Protocol: Following 3, 5, 6 or 12 months of treatment in the GAL-INT2, GAL-USA 10, GAL-INT-1 and SAB-USA-25 trials, respectively, the severity of symptoms in patients were evaluated using the cognitive subscale of the Alzheimer's Disease Assessment Scale (ADAS-cog) (Rosen et al., supra; Rockwood et al., supra; Tariot et al., supra; Wilcock et al., supra). The ADAS-cog measures cognitive function, including spoken language ability, comprehension of spoken language, recall of test instructions, word-finding difficulty in spontaneous speech, following commands, naming objects and fingers, constructional praxis, ideational praxis, orientation, word-recall task and word-recognition task (Alzheimer's Insights Online, supra).
For the clinical association study described in Example 2 below, 174 patients were selected and used to populate two groups in a tailed sampling strategy, intended to enrich alleles correlating with drug response in the population. […] Patients were assigned to responder and non-responder groups based on having a change in ADAS-cog score (ΔADAS-cog) that met a cut-off value that was chosen based on the differences in treatment times in the four clinical trials described above. The ΔADAS-cog cut-off values and treatment times used for each responder and non-responder group from each of the four clinical trials are shown in Table 6 below.
The statistical analyses compared ΔADAS-cog in patients with one copy vs. zero copies, two copies vs. zero copies, and two copies vs. one copy (within a patient's genome) of a particular allele, using a logistic regression analysis on two-degrees of freedom to associate clinical response with a particular haplotype. The following covariates were also included: age, gender, history, smoking, ADAS-cog baseline, dose (BID), body mass index, and CYP2D6. The logistic regression included assessment of associations between the haplotypes and the binary outcome of clinical response.
For the results obtained on the analyses, adjustments were made for multiple comparisons, using a permutation test (MULTIVARIATE PERMUTATION TESTS: WITH APPLICATIONS IN BIOSTATISTICS, Pesarin, John Wiley and Sons, New York, 2001). In this test, a sub-haplotype's data for each observation were kept constant, while all the remaining variables (outcome and covariates) were randomly permuted so that covariates always stayed with the same outcome. The permutation model was fitted for each of the several haplotypes, and the lowest p-value was kept. In total, 1000 permutations were done.

AD patients [2] = conditions: galantamine therapy; cited from earlier work
AD patients [3] = conditions: presence of the ApoE4 allele; cited from earlier work

| SMILES | Subject Count for Haplotype with Highest Level Response ([1]; haplotype (1), 0 copies, of 41 subjects) | Subject Count for Haplotype with Highest Level Response ([1]; haplotype (1), 1 copy, of 88 subjects) | Subject Count for Haplotype with Highest Level Response ([1]; haplotype (1), 2 copies, of 45 subjects) | Subject Count for Haplotype with Highest Level Response ([1]; haplotype (2), 0 copies, of 41 subjects) | Subject Count for Haplotype with Highest Level Response ([1]; haplotype (2), 1 copy, of 88 subjects) | Subject Count for Haplotype with Highest Level Response ([1]; haplotype (2), 2 copies, of 45 subjects) | most common side effects (AD patients [2]) | response to treatment in presence of ApoE4 polymorphism (AD patients [3]) |
| --- | --- | --- | --- | --- | --- | --- | --- | --- |
| COc1ccc2c3c1O[C@H]1C[C@@H](O)C=C[C@@]31CCN(C)C2 [galantamine] | 26 (0) | 46 (1) | 13 (2) | 26 (0) | 46 (1) | 13 (2) | nausea, vomiting, diarrhea, dizziness and anorexia | – |
| Nc1c2c(nc3ccccc13)CCCC2 [tacrine] | – | – | – | – | – | – | – | reduced response to treatment |
